Experimental data taken from ChEMBL document CHEMBL1201862, “PubChem BioAssay data set” (2004).
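Grown in 96-well plates, cells were treated for 48 hours with each compound at five concentrations. Insufficient inhibition: endpoint recorded as highest concentration tested. GI50 marks 50% less growth.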 Active and inactive are the calls of the source. No stated cut-off is given here; in the data, active = GI50 up to about 1.1 µM and inactive = higher.

What was measured:
Test in all cases: NCI anticancer screen, dose series, 48 h
786-0 = system: 786-0
A498 = system: A498
A549 = system: A549
ACHN = system: ACHN
BT-549 = system: BT-549
CAKI-1 = system: CAKI-1
CCRF-CEM = system: CCRF-CEM
COLO 205 = system: COLO 205
DU-145 = system: DU-145
EKVX = system: EKVX
HCC 2998 = system: HCC 2998
HCT-116 = system: HCT-116
HCT-15 = system: HCT-15
HL-60 = system: HL-60
HOP-62 = system: HOP-62
HOP-92 = system: HOP-92
HT-29 = system: HT-29
IGROV-1 = system: IGROV-1
K562 = system: K562
KM12 = system: KM12
LOX IMVI = system: LOX IMVI
M14 = system: M14
MCF7 = system: MCF7
MDA-MB-231 = system: MDA-MB-231
MDA-MB-435 = system: MDA-MB-435
MDA-N = system: MDA-N
MOLT-4 = system: MOLT-4
Malme-3M = system: Malme-3M
NCI-H226 = system: NCI-H226
NCI-H23 = system: NCI-H23
NCI-H460 = system: NCI-H460
NCI-H522 = system: NCI-H522
NCI/ADR-RES = system: NCI/ADR-RES
OVCAR-3 = system: OVCAR-3
OVCAR-4 = system: OVCAR-4
OVCAR-5 = system: OVCAR-5
OVCAR-8 = system: OVCAR-8
PC-3 = system: PC-3
RPMI-8226 = system: RPMI-8226
RXF 393 = system: RXF 393
SF-268 = system: SF-268
SF-295 = system: SF-295
SF-539 = system: SF-539
SK-MEL-28 = system: SK-MEL-28
SK-MEL-2 = system: SK-MEL-2
SK-MEL-5 = system: SK-MEL-5
SK-OV-3 = system: SK-OV-3
SN12C = system: SN12C
SNB-19 = system: SNB-19
SR = system: SR
SW-620 = system: SW-620
T47D = system: T47D
TK-10 = system: TK-10
U-251 = system: U-251
UACC-257 = system: UACC-257
UACC-62 = system: UACC-62
Hs-578T = system: Hs-578T
SNB-75 = system: SNB-75
UO-31 = system: UO-31

O=c1oc2nc(-c3ccccc3)cc(C(F)(F)F)c2n1Cc1ccccc1
GI50 (786-0): 5.43 µM (inactive) | GI50 (A498): 2.07 µM (inactive) | GI50 (A549): 8.69 µM (inactive) | GI50 (ACHN): 11.7 µM (inactive) | GI50 (BT-549): 19.7 µM (inactive) | GI50 (CAKI-1): 7.8 µM (inactive) | GI50 (CCRF-CEM): 7.21 µM (inactive) | GI50 (COLO 205): 7.82 µM (inactive) | GI50 (DU-145): 11.3 µM (inactive) | GI50 (EKVX): 7.03 µM (inactive) | GI50 (HCC 2998): > 25.8 µM (inactive) | GI50 (HCT-116): 3.13 µM (inactive) | GI50 (HCT-15): 1.87 µM | GI50 (HL-60): 2.15 µM (inactive) | GI50 (HOP-62): 12.2 µM (inactive) | GI50 (HOP-92): 85.5 µM (inactive) | GI50 (HT-29): 3.8 µM (inactive) | GI50 (IGROV-1): 13.4 µM (inactive) | GI50 (K562): 1.53 µM (inactive) | GI50 (KM12): 2.84 µM (inactive) | GI50 (LOX IMVI): 9.71 µM (inactive) | GI50 (M14): 4.33 µM (inactive) | GI50 (MCF7): 0.995 µM (active) | GI50 (MDA-MB-231): > 24.4 µM (inactive) | GI50 (MDA-MB-435): 0.659 µM (active) | GI50 (MDA-N): 689 nM (active) | GI50 (MOLT-4): 4.21 µM (inactive) | GI50 (Malme-3M): 1.89 µM (inactive) | GI50 (NCI-H226): > 100 µM (inactive) | GI50 (NCI-H23): 6.14 µM (inactive) | GI50 (NCI-H460): > 100 µM (inactive) | GI50 (NCI-H522): 4.33 µM (inactive) | GI50 (NCI/ADR-RES): 3.42 µM (inactive) | GI50 (OVCAR-3): 4.06 µM (inactive) | GI50 (OVCAR-4): 11.6 µM (inactive) | GI50 (OVCAR-5): > 100 µM (inactive) | GI50 (OVCAR-8): 42.4 µM (inactive) | GI50 (PC-3): 3.46 µM (inactive) | GI50 (RPMI-8226): 4.41 µM (inactive) | GI50 (RXF 393): 2.71 µM (inactive) | GI50 (SF-268): > 25 µM (inactive) | GI50 (SF-295): 5.12 µM (inactive) | GI50 (SF-539): 7.5 µM (inactive) | GI50 (SK-MEL-28): 50.1 µM (inactive) | GI50 (SK-MEL-2): 6.43 µM (inactive) | GI50 (SK-MEL-5): 5.42 µM (inactive) | GI50 (SK-OV-3): 7.8 µM (inactive) | GI50 (SN12C): 5.9 µM (inactive) | GI50 (SNB-19): 6.52 µM (inactive) | GI50 (SR): 0.454 µM (active) | GI50 (SW-620): 6.5 µM (inactive) | GI50 (T47D): 3.24 µM (inactive) | GI50 (TK-10): 46.6 µM (inactive) | GI50 (U-251): 4.8 µM (inactive) | GI50 (UACC-257): > 37.8 µM (inactive) | GI50 (UACC-62): 4.24 µM (inactive)

c1ccc2c(c1)OC(N1CCCC1)c1cnc(N3CCCC3)nc1-2 (stereo not drawn)
GI50 (786-0): 40.3 µM (inactive) | GI50 (A498): 26.5 µM (inactive) | GI50 (A549): 43.4 µM (inactive) | GI50 (ACHN): 40.6 µM (inactive) | GI50 (BT-549): 21.2 µM (inactive) | GI50 (CAKI-1): 20.9 µM (inactive) | GI50 (CCRF-CEM): 23.8 µM (inactive) | GI50 (COLO 205): 31.3 µM (inactive) | GI50 (DU-145): 49.9 µM (inactive) | GI50 (EKVX): 19.4 µM (inactive) | GI50 (HCT-116): 39.2 µM (inactive) | GI50 (HCT-15): 29.7 µM | GI50 (HL-60): 27.4 µM (inactive) | GI50 (HOP-62): 68.2 µM (inactive) | GI50 (HOP-92): 13.6 µM (inactive) | GI50 (HT-29): 36.2 µM (inactive) | GI50 (Hs-578T): 30.5 µM (inactive) | GI50 (K562): 34.3 µM (inactive) | GI50 (KM12): 41.3 µM (inactive) | GI50 (LOX IMVI): 45.9 µM (inactive) | GI50 (M14): 50.9 µM (inactive) | GI50 (MCF7): 18.6 µM (inactive) | GI50 (MDA-MB-231): 41.8 µM (inactive) | GI50 (MDA-MB-435): 49.8 µM (inactive) | GI50 (MOLT-4): 24 µM (inactive) | GI50 (Malme-3M): 40.7 µM (inactive) | GI50 (NCI-H226): 54.2 µM (inactive) | GI50 (NCI-H23): 37 µM (inactive) | GI50 (NCI-H460): 36.7 µM (inactive) | GI50 (OVCAR-3): 22.9 µM (inactive) | GI50 (OVCAR-4): 36.2 µM (inactive) | GI50 (OVCAR-5): 76 µM (inactive) | GI50 (OVCAR-8): 51.3 µM (inactive) | GI50 (PC-3): 28.7 µM (inactive) | GI50 (RPMI-8226): 20.7 µM (inactive) | GI50 (RXF 393): 20.3 µM (inactive) | GI50 (SF-268): 29.4 µM (inactive) | GI50 (SF-295): 30.4 µM (inactive) | GI50 (SF-539): 68.1 µM (inactive) | GI50 (SK-MEL-28): 79.6 µM (inactive) | GI50 (SK-OV-3): 44.1 µM (inactive) | GI50 (SN12C): 45.2 µM (inactive) | GI50 (SNB-19): 92.5 µM (inactive) | GI50 (SNB-75): 15.2 µM (inactive) | GI50 (SR): 29.7 µM (inactive) | GI50 (SW-620): 36.3 µM (inactive) | GI50 (T47D): 22.5 µM (inactive) | GI50 (TK-10): 49.2 µM (inactive) | GI50 (U-251): 45.9 µM (inactive) | GI50 (UACC-257): 20.6 µM (inactive) | GI50 (UACC-62): 50.7 µM (inactive) | GI50 (UO-31): 24.3 µM (inactive)
